Test results published in US20200128830A1, “FUSED BICYCLIC HETEROCYCLE DERIVATIVES AS PESTICIDES” (Bayer Aktiengesellschaft, priority 2017, published 2020).

Legend:
Assay type in all cases: in vivo
[1] = test system: Ctenocephalides felis; test: Ctenocephalides felis oral test; details: application rate 100 ppm in citrated cattle blood; unfed adult cat fleas; after 2 days
Procedure: Ctenocephalides felis—Oral Test Solvent: Dimethyl Sulfoxide To produce a suitable active compound formulation, 10 mg of active compound are mixed with 0.5 ml of dimethyl sulfoxide. Dilution with citrated cattle blood gives the desired concentration. About 20 unfed adult cat fleas (Ctenocephalides felis) are placed into a chamber which is closed at the top and bottom with gauze. A metal cylinder whose bottom end is closed with parafilm is placed onto the chamber. The cylinder contains the blood/active compound formulation, which can be imbibed by the fleas through the parafilm membrane. After 2 days, the kill in % is determined. 100% means that all of the fleas have been killed; 0% means that none of the fleas have been killed.

[2] = test system: Musca domestica; test: Musca domestica test; details: application rate 100 ppm; adult houseflies, sponge with sugar solution; after 2 days
Procedure: Musca domestica Test Solvent: Dimethyl Sulfoxide To produce a suitable active compound formulation, 10 mg of active compound are mixed with 0.5 ml of dimethyl sulfoxide, and the concentrate is diluted with water to the desired concentration. Vessels containing a sponge treated with sugar solution and the desired concentration of active compound formulation are populated with 10 adult houseflies (Musca domestica). After 2 days, the kill in % is determined. 100% means that all of the flies have been killed; 0% means that none of the flies have been killed.

[3] = test system: Myzus persicae; test: Myzus persicae oral test; details: 120 h, mixed population of green peach aphids, after 5 days, read-out: efficacy; for pest or weed control at 4 ppm: application rate 4 ppm
Procedure: Myzus persicae—Oral Test [table] To produce a suitable active compound formulation, 1 part by weight of active compound is dissolved with the stated parts by weight of solvent and made up to the desired concentration with water. 50 μl of the active compound formulation are transferred into microtitre plates and made up to a final volume of 200 μl with 150 μl of IPL41 insect medium (33%+15% sugar). Subsequently, the plates are sealed with parafilm, which a mixed population of green peach aphids (Myzus persicae) within a second microtitre plate is able to puncture and imbibe the solution. After 5 days, the efficacy in % is determined. 100% means that all the aphids have been killed; 0% means that no aphids have been killed.

[4] = test system: Myzus persicae; test: Myzus persicae spray test; details: foliar, 120 h, application rate 100 g/ha, Chinese cabbage leaf discs infested by all stages, after 5 days, read-out: efficacy
Procedure: Myzus persicae—Spray Test [table] To produce a suitable active compound formulation, 1 part by weight of active compound is dissolved with the specified parts by weight of solvent and made up to the desired concentration with water containing an emulsifier concentration of 1000 ppm. To produce further test concentrations, the formulation is diluted with emulsifier-containing water. Discs of Chinese cabbage leaves (Brassica pekinensis) infested by all stages of the green peach aphid (Myzus persicae) are sprayed with an active compound formulation of the desired concentration. After 5 days, the efficacy in % is determined. 100% means that all the aphids have been killed; 0% means that no aphids have been killed.

[5] = test system: Phaedon cochleariae; test: Phaedon cochleariae spray test; details: foliar, 168 h, application rate 100 g/ha, larvae on Chinese cabbage leaf discs, after 7 days, read-out: efficacy
Procedure: Phaedon cochleariae—Spray Test
(§1) To produce a suitable active compound formulation, 1 part by weight of active compound is dissolved with the specified parts by weight of solvent and made up to the desired concentration with water containing an emulsifier concentration of 1000 ppm. To produce further test concentrations, the formulation is diluted with emulsifier-containing water.
Discs of Chinese cabbage leaves (Brassica pekinensis) are sprayed with an active compound formulation of the desired concentration and, after drying, populated with larvae of the mustard beetle (Phaedon cochleariae).
After 7 days, the efficacy in % is determined. 100% means that all the beetle larvae have been killed; 0% means that no beetle larvae have been killed.

[6] = test system: Spodoptera frugiperda; test: Spodoptera frugiperda spray test; details: foliar, 168 h, application rate 100 g/ha, caterpillars on maize leaf discs, after 7 days, read-out: efficacy
Procedure: Spodoptera frugiperda—Spray Test [table] To produce a suitable active compound formulation, 1 part by weight of active compound is dissolved with the specified parts by weight of solvent and made up to the desired concentration with water containing an emulsifier concentration of 1000 ppm. To produce further test concentrations, the formulation is diluted with emulsifier-containing water. Leaf discs of maize (Zea mays) are sprayed with an active compound formulation of the desired concentration and, after drying, populated with caterpillars of the fall armyworm (Spodoptera frugiperda). After 7 days, the efficacy in % is determined. 100% means that all the caterpillars have been killed; 0% means that no caterpillar has been killed.

[7] = test system: Tetranychus urticae; test: Tetranychus urticae spray test, OP-resistant; details: application rate 100 g/ha, bean leaf discs infested with all stages, after 6 days
Procedure: Tetranychus urticae—Spray Test, OP-Resistant
as §1
Discs of bean leaves (Phaseolus vulgaris) infested with all stages of the greenhouse red spider mite (Tetranychus urticae) are sprayed with an active compound formulation of the desired concentration.
After 6 days, the efficacy in % is determined. 100% means that all the spider mites have been killed; 0% means that no spider mites have been killed.

[8] = test system: Lucilia cuprina; test: Lucilia cuprina test; details: application rate 100 ppm; L1 larvae on minced horsemeat; after 2 days
Procedure: Lucilia cuprina Test Solvent: Dimethyl Sulfoxide To produce a suitable active compound formulation, 10 mg of active compound are mixed with 0.5 ml of dimethyl sulfoxide, and the concentrate is diluted with water to the desired concentration. About 20 L1 larvae of the Australian sheep blowfly (Lucilia cuprina) are transferred into a test vessel containing minced horsemeat and the active compound preparation of the desired concentration. After 2 days, the kill in % is determined. 100% means that all the larvae have been killed; 0% means that no larvae have been killed.

SMILES	pest or weed control at 4 ppm [3]	pest or weed control at 100 g/ha [4]	pest or weed control at 100 g/ha [5]	pest or weed control at 100 g/ha [6]	other results
CCS(=O)(=O)c1c(-c2nc3cc(C(F)(F)F)ncc3n2C)sc2nc(C(F)(F)F)oc12 [I-12]	100%	100%	100%	100%	efficacy (kill in %) [1]: 80%; efficacy (kill in %) [2]: 85%; efficacy [7]: 90%
CCS(=O)(=O)c1c(-c2nc3cc(C(F)(F)F)ncc3n2C)sc2c(C(=O)NC)csc12 [I-24]	100%	90%	–	–	–
CCS(=O)(=O)c1c(-c2nc3cc(C(F)(F)F)ncc3n2C)sc2cc(Cl)sc12 [I-25]	100%	90%	–	100%	–
CCS(=O)(=O)c1c(-c2nc3cc(C(F)(F)F)ncc3n2C)sc2c(-c3ccccc3)csc12 [I-16, 2-[3-(Ethylsulfonyl)-6-phenylthieno[3,2-b]thiophen-2-yl]-3-methyl-6-(trifluoromethyl)-3H-imidazo[4,5-c]pyridine]	100%	90%	–	100%	–
CCS(=O)(=O)c1c(-c2nc3cc(C(F)(F)F)ncc3n2C)sc2c(-n3cnc(C(F)(F)F)c3)csc12 [I-21]	100%	90%	100%	100%	–
CCS(=O)(=O)c1c(-c2nc3cc(C(F)(F)F)ncc3n2C)sc2c(Br)csc12 [I-8, 2-[6-Bromo-3-(ethylsulfonyl)thieno[3,2-b]thiophen-2-yl]-3-methyl-6-(trifluoromethyl)-3H-imidazo[4,5-c]pyridine]	100%	–	–	100%	–
CCS(=O)(=O)c1c(-c2nc3cc(C(F)(F)F)nnc3n2C)sc2cc(C(F)(F)F)sc12 [I-18]	100%	100%	100%	100%	efficacy (kill in %) [1]: 100%; efficacy (kill in %) [2]: 80%
CCS(=O)(=O)c1c(-c2nc3cc(C(F)(F)F)ncc3n2C)sc2c(NC(=O)C3CC3)csc12 [I-19]	–	–	–	–	pest or weed control at 0.8 ppm ([3]; application rate 0.8 ppm): 100%
CCS(=O)(=O)c1c(-c2nc3cc(C(F)(F)F)ncc3n2C)sc2c(C3CC3)csc12 [I-23]	100%	–	–	100%	–
CCS(=O)(=O)c1c(-c2nc3cc(C(F)(F)F)ncc3n2C)sc2ccsc12 [I-1]	100%	–	–	–	efficacy (kill in %) [8]: 100%
CCS(=O)(=O)c1c(-c2nc3cc(C(F)(F)F)ncc3n2C)sc2c1C(=O)CC2 [I-30]	–	–	–	–	efficacy [7]: 90%
CCS(=O)(=O)c1c(-c2nc3cc(C(F)(F)F)ncc3n2C)sc2cc(C(F)(F)F)sc12 [I-7]	–	100%	–	–	efficacy (kill in %) [1]: 95%; efficacy (kill in %) [2]: 80%; efficacy [7]: 90%
CCS(=O)(=O)c1c(-c2nc3cc(C(F)(F)F)ncc3n2C)sc2cc(C(F)(F)F)sc12 [I-3, 2-[3-(Ethylsulfonyl)-5-(trifluoromethyl)thieno[3,2-b]thiophen-2-yl]-3-methyl-6-(trifluoromethyl)-3H-imidazo[4,5-c]pyridine]	100%	–	100%	100%	–
CCS(=O)(=O)c1c(-c2nc3cc(C(F)(F)F)cnc3n2C)sc2nc(C(F)(F)F)sc12 [I-13]	90%	–	100%	100%	–
CCS(=O)(=O)c1c(-c2nc3cc(C(F)(F)F)ncc3n2C)sc2c(-n3cc(Cl)cn3)csc12 [I-20, 2-[6-(4-Chloro-1H-pyrazol-1-yl)-3-(ethylsulfonyl)thieno[3,2-b]thiophen-2-yl]-3-methyl-6-(trifluoromethyl)-3H-imidazo[4,5-c]pyridine]	100%	–	100%	100%	–
CCS(=O)(=O)c1c(-c2nc3cc(C(F)(F)C(F)(F)F)ncc3n2C)sc2nc(C(F)(F)F)sc12 [I-14]	90%	90%	100%	100%	–
CCS(=O)(=O)c1c(-c2nc3cc(C(F)(F)F)ncc3n2C)sc2c(-c3cnn(C)c3)csc12 [I-11, 2-[3-(Ethylsulfonyl)-6-(1-methyl-1H-pyrazol-4-yl)thieno[3,2-b]thiophen-2-yl]-3-methyl-6-(trifluoromethyl)-3H-imidazo[4,5-c]pyridine]	90%	90%	83%	–	–
CCS(=O)(=O)c1c(-c2nc3cc(C(F)(F)F)ncc3n2C)sc2ccoc12 [I-2, 2-[6-(Ethylsulfonyl)thieno[3,2-b]furan-5-yl]-3-methyl-6-(trifluoromethyl)-3H-imidazo[4,5-c]pyridine]	100%	–	–	–	efficacy (kill in %) [8]: 100%
CCS(=O)(=O)c1c(-c2nc3cc(C(F)(F)F)ncc3n2C)sc2cc(C)sc12 [I-22]	100%	90%	–	–	–
CCS(=O)(=O)c1c(-c2nc3cc(C(F)(F)F)ncc3n2C)sc2c(C#N)csc12 [I-5, 6-(Ethylsulfonyl)-5-[3-methyl-6-(trifluoromethyl)-3H-imidazo[4,5-c]pyridin-2-yl]thieno[3,2-b]thiophene-3-carbonitrile]	100%	–	–	–	–
CCS(=O)(=O)c1c(-c2nc3cc(C(F)(F)F)ncc3n2C)sc2c(NC(C)=O)csc12 [I-6, N-{6-(Ethylsulfonyl)-5-[3-methyl-6-(trifluoromethyl)-3H-imidazo[4,5-c]pyridin-2-yl]thieno[3,2-b]thiophen-3-yl}acetamide]	–	90%	–	–	–
CCS(=O)(=O)c1c(-c2nc3cc(C(F)(F)F)ncc3n2C)sc2c1CCC2 [I-4, 2-[3-(Ethylsulfonyl)-5,6-dihydro-4H-cyclopenta[b]thiophen-2-yl]-3-methyl-6-(trifluoromethyl)-3H-imidazo[4,5-c]pyridine]	100%	–	–	–	efficacy (kill in %) [8]: 90%
CCS(=O)(=O)c1c(-c2nc3cc(C(F)(F)F)ncc3n2C)sc2c(C(N)=O)csc12 [I-15, 6-(Ethylsulfonyl)-5-[3-methyl-6-(trifluoromethyl)-3H-imidazo[4,5-c]pyridin-2-yl]thieno[3,2-b]thiophene-3-carboxamide]	100%	90%	–	–	efficacy [7]: 90%
CCS(=O)(=O)c1c(-c2nc3cc(C(F)(F)F)nnc3n2C)sc2nc(C(F)(F)F)sc12 [I-9]	100%	–	100%	100%	–
